Experiment [1] has as its target T1, GPR86 (P2Y13) human receptor (Homo sapiens, UniProt Q9BPV8, T179M).
T1 sequence (Q9BPV8 22-354 T179M): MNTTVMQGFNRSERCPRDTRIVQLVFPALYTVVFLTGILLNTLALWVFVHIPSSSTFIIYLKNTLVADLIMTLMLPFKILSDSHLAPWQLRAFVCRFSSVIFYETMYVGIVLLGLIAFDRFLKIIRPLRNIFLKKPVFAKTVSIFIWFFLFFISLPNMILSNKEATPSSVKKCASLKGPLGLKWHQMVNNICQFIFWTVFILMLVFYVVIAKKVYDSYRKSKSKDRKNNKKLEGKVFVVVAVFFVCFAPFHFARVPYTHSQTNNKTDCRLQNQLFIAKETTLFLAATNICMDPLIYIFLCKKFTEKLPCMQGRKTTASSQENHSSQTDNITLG
The experiment in a line: IP3 accumulation in 1321N1 cells (AG32) expressing GPR86 (P2Y13) together with Gα16. The class given is cell-based. Set-up: expressed in transfected cells; host or cells: 1321N1 astrocytoma clone AG32 (stably expressing Gα16 from pERAEQ2), G418-selected. To be noted: for IP3 response to nucleotides: 100 μM for 30 s, pool of G418-resistant clones expressing GPR86 and Gα16; for IP3 responses after treatment of the nucleotide solutions with CPK and CP (ATP-regenerating system): 1 mM solutions, 20 units/ml CPK, 10 mM CP, 90 min, FIG. 4B; for agonist character at human P2Y13 receptor: after creatinephosphate and creatinephosphokinase treatment; for effect on IP3 accumulation: 100 nM and 10 μM. On the procedure:
Cells of the invention, for example, 1321N1 cells, are labelled for 24 hours with 10 μCi/ml [^3H] inositol in inositol free DMEM containing 5% FCS, antibiotics, amphotericin, sodium pyruvate and 400 μg/ml G418. Cells are incubated for 2 h in Krebs-Ringer Hepes (KRH) buffer of the following composition (124 mM NaCl, 5 mM KCl, 1.25 mM MgSO4, 1.45 mM CaCl2, 1.25 mM KH2PO4, 25 mM Hepes (pH: 7.4) and 8 mM glucose). The cells are then challenged with various nucleotides for 30 s. The incubation is stopped by the addition of an ice cold 3% perchloric acid solution. IP are extracted and separated on Dowex columns as previously described (25). 2MeSATP and ATP solutions (1 mM) are treated at room temperature with 20 units/ml CPK and 10 Mm cp for 90 min to circumvent problems arising from the contamination and degradation of triphosphate nucleotide solutions.
CHO-K1 and 1321N1 cells were transfected with the recombinant GPR86-pEFIN5 plasmid or with the plasmid alone using the FuGENE™6 transfection reagent (Roche Molecular Biochemicals). A clone called AG32 corresponding to 1321N1 cells previously transfected with pERAEQ2 plasmid encoding Gα16 (provided by Euroscreen), was transfected. The CHO-K1 and 1321N1 transfected cells were selected with 400 μg/ml G418 in complete medium (10% FBS, 100 units/ml penicillin, 100 μg/ml streptomycin and 2.5 μg/ml amphotericin B in respectively Ham's F12 or DMEM (Dulbecco's modified Eagle's) medium) two days after transfection and maintained in the same medium. The AG32 cells were maintained in the same DMEM complete medium supplemented with 500 μg/ml zeocin.
The pool of G418-resistant clones was tested for its functional IP3 response to several nucleotides, according to the method described above. The cells were challenged by various nucleotides at a concentration of 100 μM for 30 s: ATP, ADP, UTP, UDP, ITP, IDP, TDP.
Concentration-action curves for ADP, 2MeSADP and ADPβS. […] 1321N1 transfected cells were incubated in the presence of various concentrations of ADP, 2MeSADP and ADPβS for 30 s. The data represent the mean±S.D. of triplicate experimental points obtained in one representative experiment of three.
AG32 cells were seeded (200,000 cells per dish) on 35 mm (diameter) Petri dishes and labeled for 24 h with 5 μCi/ml [3H]-myoinositol in inositol free DMEM containing 5% fetal calf serum, antibiotics, amphotericin, sodium pyruvate, and 400 μg/ml of G418. Cells were incubated for 2 h in Krebs-Ringer Hepes (KRH) buffer (124 mM NaCl, 5 mM KCl, 1.25 mM MgSO4, 1.45 mM CaCl2, 1.25 mM KH2PO4, 25 mM Hepes (pH 7.4) and 8 mM D-glucose). The cells were then incubated in presence of ADP, ATP or 2MeSATP for 30 s. The incubation was stopped by the addition of 1 ml of an ice-cold 3% perchloric acid solution. Prior to the stimulation, ATP and 2MeSATP (1 mM solutions) were incubated for 90 min at room temperature with 20 units/ml creatine phosphokinase (CPK) and 10 mM creatine phosphate (CP). The reaction was stopped by addition of 10 mM iodoacetamide.
AG32 cells were seeded (200,000 cells per dish) on 35 mm (diameter) Petri dishes and labeled for 24 h with 5 μCi/ml [^3H]-myoinositol in inositol free DMEM containing 5% fetal calf serum, antibiotics, amphotericin, sodium pyruvate, and 400 μg/ml of G418. Cells were incubated for 2 h in Krebs-Ringer Hepes (KRH) buffer (124 mM NaCl, 5 mM KCl, 1.25 mM MgSO4, 1.45 mM CaCl2, 1.25 mM KH2PO4, 25 mM Hepes (pH 7.4) and 8 mM D-glucose). The cells were then incubated in presence of two different concentrations (100 nM and 10 μM) of ADP or ApnA (n=3-6) for 30 s. The incubation was stopped by the addition of 1 ml of an ice-cold 3% perchloric acid solution.
AG32 cells were seeded (200,000 cells per dish) on 35 mm (diameter) Petri dishes and labeled for 24 h with 5 μCi/ml [^3H]-myoinositol in inositol free DMEM containing 5% fetal calf serum, antibiotics, amphotericin, sodium pyruvate, and 400 μg/ml of G418.

Experiment [2] deals with T1, GPR86 (P2Y13) human receptor. The experiment in a line: Western blot of phosphorylated Erk1 and Erk2 in GPR86-transfected CHO-K1 cells. Set-up: expressed in transfected cells. To be noted: pertussis toxin 100 ng/ml for 18 h; agonist 1 μM, 5 or 30 minutes. The class given is cell-based. On the procedure:
To investigate changes in the activation status of the MAP kinases Erk1 and Erk2 upon stimulation of the human GPR86 receptor, whole CHO-K1 transfected cell extracts were analysed by Western blotting using a specific antibody for the dually phosphorylated kinases (at Thr^202 and Tyr^204), which are the active forms of Erk. Western Blot Analysis of phosphorylated Erk1 and Erk2 proteins.
GPR86-transfected CHO-K1 cells were seeded at 1.5×10^6 cells/dish. After 24 h, the cells were serum-starved for 2 h in KRH buffer. After stimulation with the agonist, the cells were scraped in 1 ml of PBS pH 7.3 (137 mM NaCl, 2.7 mM KCl, 4.3 mM Na2HPO4.7H2O and 1.4 mM KH2PO4). The cells were recovered by centrifugation and lysed in 150 μl of Laemmli buffer (10% (w/v) glycerol, 5% (v/v) mercaptoethanol, 2.3% (w/v) SDS, 62.5 mM Tris-HCl pH 6.8). The protein concentration was determined using the method of Minamide and Bamburg (27). The same amount of protein for each condition was electrophoresed in a 12% SDS-polyacrylamide gel. Proteins were then transferred overnight at 60 V and 4° C. onto a nitrocellulose membrane using 20 mM Tris, 154 mM glycine, 20% (v/v) methanol as a transfer buffer. Immunodetection was achieved using the enhanced chemiluminescence Western blotting detection system (ECL, Amersham Phammacia Biotech) using a biotinylated-secondary mouse antibody ( 1/25,000). The monoclonal antibody specific for the dually phosphorylated forms of Erk1 and Erk2 (at Thr^202 and Tyr^204) was used at 1/1000-dilution.
In CHO-K1 cells, phosphorylated Erk1 and Erk2 had the predicted molecular mass of 44 and 42 kDa, respectively. […] GPR86-transfected CHO-K1 cells were stimulated during different times or with various concentrations of ADP and 2MeSADP or water (CONT). The effect of 100 ng/ml pertussis toxin (PTx) has been tested at 5 and 30 min in the presence of 1 μM ADP or 2MeSADP. Blotting and immunodetection were achieved as described using the enhanced chemiluminescence Western blotting detection system (ECL, Amersham Pharmacia Biotech).

Setting [3] is: AG32 cells, nucleotides pretreated with creatine phosphokinase and creatine phosphate, 30 s, read-out: EC50, stimulation of GPR86 receptor activity ([3H]IP3).
Setting [4] is: 1321N1 cells expressing GPR86 and Gα16.

These results are taken from patent US7422846B2, “Natural ligand for orphan G protein coupled receptor GPR86 and methods of use” (Euroscreen S.A, priority 2001, dated 2008).

Where two headings read alike, the source gives them in different places.

As to `CSc1nc(N)c2ncn([C@@H]3O[C@H](COP(=O)(O)OP(=O)(O)OP(=O)(O)O)[C@@H](O)[C@H]3O)c2n1` [2MeSATP, 2-methylthio-ATP], in experiment [1], the “IP3 response to nucleotides” value is on record as “responses were lost after HPLC-purification”; the “IP3 responses after treatment of the nucleotide solutions with CPK and CP (ATP-regenerating system)” value is on record as “abolished”. In addition, in experiment [1] (AG32 cells), the “agonist character at human P2Y13 receptor” value was “partial agonists”. In addition, the EC50 in experiment [1] (setting [3]) worked out at 1500 ± 200 nM.
`Nc1ncnc2c1ncn2[C@@H]1O[C@H](COP(=O)(O)O)[C@@H](O)[C@H]1OP(=O)(O)O` [A2P5P, adenosine 2′,5′-diphosphate]: in experiment [1] (setting [4]), the IP3 response result is “No IP3 response”.
For `Nc1ncnc2c1ncn2[C@@H]1O[C@H](COP(=O)(O)O)[C@@H](OP(=O)(O)O)[C@H]1O` [A3P5P, adenosine 3′,5′-diphosphate], the IP3 response result in experiment [1] (setting [4]) is “No IP3 response”.
As for `Nc1ncnc2c1ncn2[C@@H]1O[C@H](COP(=O)(O)OS(=O)(=O)O)[C@@H](OP(=O)(O)O)[C@H]1O` [A3P5PS, adenosine 3′-phosphate 5′-phosphosulfate], in experiment [1] (setting [4]), the IP3 response result was “No IP3 response”.
For the compound `Nc1ncnc2c1ncn2[C@@H]1O[C@H](COP(=O)(O)OP(=O)(O)OP(=O)(O)O)[C@@H](O)[C@H]1O` [ATP], in experiment [1], the “IP3 response to nucleotides” value was “responses were lost after HPLC-purification”; the “IP3 responses after treatment of the nucleotide solutions with CPK and CP (ATP-regenerating system)” value was “abolished”. Further, the “agonist character at human P2Y13 receptor” value in experiment [1] (AG32 cells) was “partial agonists”. In addition, the EC50 in experiment [1] (setting [3]) turned out to be 4200 ± 800 nM.
Consider `Nc1ncnc2c1ncn2[C@@H]1O[C@H](COP(=O)(O)OP(=O)(O)OP(=O)(O)OC[C@H]2O[C@@H](n3cnc4c(N)ncnc43)[C@H](O)[C@@H]2O)[C@@H](O)[C@H]1O` [Ap3A], for which, in experiment [1] (AG32 cells, 30 s), the “effect on IP3 accumulation” value is reported as “almost equal to that of ADP”.
In the case of `Nc1ncnc2c1ncn2[C@@H]1O[C@H](COP(=O)(O)OP(=O)(O)OP(=O)(O)OP(=O)(O)OC[C@H]2O[C@@H](n3cnc4c(N)ncnc43)[C@H](O)[C@@H]2O)[C@@H](O)[C@H]1O` [Ap4A], the “effect on IP3 accumulation” value in experiment [1] (AG32 cells, 30 s) is “inactive”.
Consider `Nc1ncnc2c1ncn2[C@@H]1O[C@H](COP(=O)(O)OP(=O)(O)OP(=O)(O)OP(=O)(O)OP(=O)(O)OC[C@H]2O[C@@H](n3cnc4c(N)ncnc43)[C@H](O)[C@@H]2O)[C@@H](O)[C@H]1O` [Ap5A], for which the “effect on IP3 accumulation” value in experiment [1] (AG32 cells, 30 s) was “inactive”.
On to `Nc1ncnc2c1ncn2[C@@H]1O[C@H](COP(=O)(O)OP(=O)(O)OP(=O)(O)OP(=O)(O)OP(=O)(O)OP(=O)(O)OC[C@H]2O[C@@H](n3cnc4c(N)ncnc43)[C@H](O)[C@@H]2O)[C@@H](O)[C@H]1O` [Ap6A], for which the “effect on IP3 accumulation” value in experiment [1] (AG32 cells, 30 s) was “inactive”.
As to `O=c1[nH]cnc2c1ncn2[C@@H]1O[C@H](COP(=O)(O)OP(=O)(O)O)[C@@H](O)[C@H]1O` [IDP], in experiment [1], the “IP3 response to nucleotides” value is on record as “induced an IP3 response”.
As for `O=c1[nH]cnc2c1ncn2[C@@H]1O[C@H](COP(=O)(O)OP(=O)(O)OP(=O)(O)O)[C@@H](O)[C@H]1O` [ITP], the “IP3 response to nucleotides” value in experiment [1] is recorded as “No IP3 response”.
Still for that read-out and setting: the value for `Cc1cn([C@H]2C[C@H](O)[C@@H](COP(=O)(O)OP(=O)(O)O)O2)c(=O)[nH]c1=O` [TDP] was “No IP3 response”; that for `O=c1ccn([C@@H]2O[C@H](COP(=O)(O)OP(=O)(O)O)[C@@H](O)[C@H]2O)c(=O)[nH]1` [UDP] was “induced an IP3 response”; that for `O=c1ccn([C@@H]2O[C@H](COP(=O)(O)OP(=O)(O)OP(=O)(O)O)[C@@H](O)[C@H]2O)c(=O)[nH]1` [UTP] was “No IP3 response”.
For Poly[A], the “activity on human GPR86 after creatinephosphate/creatinephosphokinase treatment” value in experiment [1] (AG32 cells, 30 s, FIG. 10) is “still able to activate GPR86”. Besides, the EC50 in experiment [1] (AG32 cells, after creatinephosphate/creatinephosphokinase treatment, concentration in AMP equivalent, read-out: EC50, activation of GPR86 ([3H]IP3)) is 205000 ± 60000 nM.
Turning to “adenosine 5′-O-(2-thiodiphosphate) [ADPβS]”, the EC50 in experiment [1] (1321N1 cells expressing GPR86 and Gα16, 30 s, mean±S.D. of three independent experiments, read-out: EC50, IP3 accumulation) was found to be 48.4 ± 0.4 nM.
For pertussis toxin, in experiment [2], the “effect on Erk phosphorylation induced by ADP or 2-MeSADP” value is “strongly inhibited”. In addition, in experiment [1] (ADP 300 nM, 18 hours pretreatment with 100 ng/ml pertussis toxin, mean±range of two independent experiments), the “inhibition of the ADP response (IP3)” value came to 86±8%.
